Patent US9358276B2, “Methods of diagnosing and treating small intestinal bacterial overgrowth (SIBO) and SIBO-related conditions” (Cedars-Sinai Medical Center, priority 1999, dated 2016)

Tests used:
Assay type in all cases: in vivo, human
upper gut transit = test: Upper gut transit time by lactulose breath hydrogen test after oleate or oleic acid; conditions: five patients with persistent diarrhea
Description: In a preliminary study, five patients with persistent diarrhea for 3 to 22 months, (one each due to vagal denervation, ileal resection for Crohn's disease, and vagotomy and antrectomy, and two due to idiopathic causes) were studied. […] This test relies on the metabolism of certain carbohydrate materials (e.g. lactulose) by the microbial flora within the caecum. By generating gas which can be detected in the expired air, it is possible to make some estimation about the initial arrival of the administered material within the colon.
Each patient received orally in random order, 0, 1.6 or 3.2 g of sodium oleate in 25 mL Ensure (Ross), followed by 100 mL water. Thirty minutes after each dose of oleate, patients received 10 g lactulose orally, followed by 25 mL water. Breath samples were collected in commercially available breath testing bags (Quintron, Menomonee Falls, Wis.) every 10-15 minutes, and the hydrogen content of the samples was measured using a breath analyzer (Microlyzer Model 12, Quintron Instruments, Menomonee Falls, Wis.), calibrated against gas samples of known hydrogen concentration. With a syringe, a 40-mL sample of the expired breath was withdrawn from the collection bag and analyzed immediately for hydrogen concentration (ppm). The hydrogen concentration value from each sample was plotted against time. Upper gut transit time was defined as the time in minutes from ingestion of lactulose (t0) until a rise of H2 of >10 ppm. Data were further analyzed using 1-way repeated measures analysis of variance (ANOVA)(See Table 4).
The effect of an active lipid on transit time was determined in 8 normal human subjects (1 male and 7 females with a mean age of 35±2.6 years [SE]) and 45 patients (20 males and 25 females with a mean age of 49.1±2.5 [SE], age range from 18 to 90 years) with chronic diarrhea (i.e., continuous diarrhea for more than two months) associated with a wide variety of diagnoses and conditions (e.g., Crohn's disease; irritable bowel syndrome; short bowel syndrome; Indiana pouch; AIDS; ulcerative colitis; vagotomy; antrectomy; ileostomy; partial and complete colectomy; colon cancer; diabetes mellitus type 1; pancreatic insufficiency; radiation enteropathy; esophagectomy/gastric pull-up; total and subtotal gastrectomy; gastrojejunostomy), made by referring gastroenterologists. The method was the same as described above, except oleic acid (Penta Manufacturing, Livingston, N.J.) replaced sodium oleate in 50 mL of Ensure emulsion. All subjects refrained from taking antibiotics for at least two weeks before each testing date and during stool measurement periods. Patients were also instructed to refrain from anti-diarrheal drugs, laxatives, somatostatin analogues or anticholinergics for at least 48 hours before each test. In both the normal and patient groups, there was a significant slowing of upper gut transit time in response to oleic acid, as summarized in Table 5 below (p<0.001).

SIBO [1] = test: Comparison of antibiotic regimes for eradicating SIBO, follow-up lactulose breath hydrogen test (LBHT)
Procedure: Subjects were tested after an overnight fast. […] Each breath sample was then analyzed for hydrogen content with a gas chromatograph (Quintron Model DP, Quintron Instrument Co., Division of E.F. Brewer Co, Menomonee Falls, Wis. 53051), standardized using a QuinGas standard as instructed by the manufacturer. Hydrogen peaks were plotted before and after an antimicrobial treatment regimen for comparison. The normal range for the second hydrogen peak was 0 to 20 ppm. Subjects referred to the Cedars-Sinai GI Motility Program for a lactulose breath hydrogen test (LBHT) to assess SIBO were entered into a database. Those that tested positive for SIBO were given antibiotic treatment by their referring physician and in some cases, returned for a follow-up LBHT to assess eradication of SIBO. During the follow-up LBHT, subjects were asked which antibiotic they were given to treat their SIBO. The eradication rate of each antibiotic was evaluated. Of the 771 subjects in the database, 561 (73%) tested positive for SIBO. […] (See Table 1 below). […] None of the commonly used antibiotics was universally successful in eradicating overgrowth.

SIBO [2] = test: Neomycin treatment of SLE subjects with SIBO
Procedure: Fifteen of the 202 (7.4%) subjects in the database had been diagnosed with SLE. Of these 15 subjects, 13 (87%) had bacterial overgrowth, as indicated by LBHT. Four of the 15 subjects with SLE returned for follow-up LBHT and questionnaire after treatment with neomycin (500 mg twice daily for 10 days). […] (Table 3).

SIBO [3] = test: Case: multiple sclerosis with SIBO, neomycin; conditions: one patient
Description: A suspected diagnosis of multiple sclerosis had been made by a neurologist was based on various neuropathies of the peripheral nervous system, including numbness, tingling, and weakness in the lower extremities, but this subject also had associated bloating, gas, distension and alteration in bowel habits. The subject also complained of a significant fatigue and nausea. The subject underwent LBHT, which detected SIBO. […] They no longer had numbness or tingling in the hands or feet and was functioning quite well.

| Molecule | Transit time (mean ± SE) (upper gut transit; 1.6 g sodium oleate in 25 mL Ensure) | Transit time (mean ± SE) (upper gut transit; 3.2 g sodium oleate in 25 mL Ensure) | success in eradicating SIBO, comparison of antibiotics (SIBO [1]; 105 subjects with follow-up LBHT) | % Patients with SIBO Eradicated (SIBO [1]; follow-up LBHT) | VAS score Fatigue, After Antibiotic (SIBO [2]; four SLE patients) | VAS score Gas, After Antibiotic (SIBO [2]; four SLE patients) | VAS score Joint Pains, After Antibiotic (SIBO [2]; four SLE patients) | VAS score Bloating, After Antibiotic (SIBO [2]; four SLE patients, neomycin 500 mg twice daily for 10 days) | LBHT result after treatment (SIBO [2]; four SLE subjects) | time to relapse of symptoms after initial response (SIBO [3]) | nausea, fatigue, bloating, gas distension and alteration in bowel habits (SIBO [3]; first treatment) | neuropathies (SIBO [3]; first treatment) | symptoms upon re-treatment (SIBO [3]; re-treatment 500 mg twice daily for 10 days) | eradication of bacterial overgrowth (SIBO [3]; 500 mg twice daily for 10 days) |
| --- | --- | --- | --- | --- | --- | --- | --- | --- | --- | --- | --- | --- | --- | --- |
| CCCCCCCC/C=C\CCCCCCCC(=O)[O-].[Na+] [oleate, sodium oleate] | 116 ± 11.1 min | 140 ± 11.5 min | – | – | – | – | – | – | – | – | – | – | – | – |
| neomycin | – | – | most successful | 55% | 3.5 ± 1.4 | 1.9 ± 1.7 | 0.5 ± 0.6 | 1.3 ± 1.3 | negative for SIBO | 6-8 weeks | complete resolution | dramatic improvement and resolution | complete resolution of their symptoms | at least partially eradicated |
